Measurements reported in PubChem BioAssay (NCI).
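Dose response: 5 concentrations. Exposure: 48 h. Format: 96-well plates. Endpoint: linear interpolation; highest concentration if not reached. TGI: concentration producing complete growth inhibition.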

Experiments:
Test in all cases: NCI tumour cell line growth inhibition, 48 h
NCI-H226 lung = system: NCI-H226 lung
BT-549 breast = system: BT-549 breast
SR leukemia = system: SR leukemia
NCI-H460 lung = system: NCI-H460 lung
RXF 393 renal = system: RXF 393 renal
SW-620 colon = system: SW-620 colon
786-0 renal = system: 786-0 renal
HCT-15 colon = system: HCT-15 colon
SK-MEL-2 melanoma = system: SK-MEL-2 melanoma
COLO 205 colon = system: COLO 205 colon
KM12 colon = system: KM12 colon
HOP-92 NSCLC = system: HOP-92 NSCLC
EKVX NSCLC = system: EKVX NSCLC
MDA-MB-231 breast = system: MDA-MB-231 breast
M14 melanoma = system: M14 melanoma
SNB-75 CNS = system: SNB-75 CNS
MCF7 breast = system: MCF7 breast
SF-539 CNS = system: SF-539 CNS
MDA-MB-435 = system: MDA-MB-435
RPMI-8226 leukemia = system: RPMI-8226 leukemia
SK-MEL-5 melanoma = system: SK-MEL-5 melanoma
MOLT-4 leukemia = system: MOLT-4 leukemia
NCI-H23 lung = system: NCI-H23 lung
K-562 leukemia = system: K-562 leukemia
T-47D breast = system: T-47D breast
A498 renal = system: A498 renal
HT29 colon = system: HT29 colon
IGROV1 ovarian = system: IGROV1 ovarian
UO-31 renal = system: UO-31 renal
HCC-2998 colon = system: HCC-2998 colon
NCI-H522 lung = system: NCI-H522 lung
PC-3 prostate = system: PC-3 prostate
ACHN renal = system: ACHN renal
OVCAR-4 ovarian = system: OVCAR-4 ovarian
UACC-62 melanoma = system: UACC-62 melanoma
MDA-N = system: MDA-N
U251 CNS = system: U251 CNS
SF-268 CNS = system: SF-268 CNS
HOP-62 NSCLC = system: HOP-62 NSCLC
DU-145 prostate = system: DU-145 prostate
SN12C renal = system: SN12C renal
CCRF-CEM leukemia = system: CCRF-CEM leukemia
HS 578T breast = system: HS 578T breast
HCT-116 colon = system: HCT-116 colon
SK-MEL-28 melanoma = system: SK-MEL-28 melanoma
NCI/ADR-RES ovarian = system: NCI/ADR-RES ovarian
UACC-257 melanoma = system: UACC-257 melanoma
TK-10 renal = system: TK-10 renal
MALME-3M melanoma = system: MALME-3M melanoma
CAKI-1 renal = system: CAKI-1 renal
A549 NSCLC = system: A549 NSCLC
OVCAR-5 ovarian = system: OVCAR-5 ovarian
SNB-19 CNS = system: SNB-19 CNS
OVCAR-8 ovarian = system: OVCAR-8 ovarian
SK-OV-3 ovarian = system: SK-OV-3 ovarian
HL-60(TB) leukemia = system: HL-60(TB) leukemia
OVCAR-3 ovarian = system: OVCAR-3 ovarian
LOX IMVI melanoma = system: LOX IMVI melanoma
SF-295 CNS = system: SF-295 CNS

SMILES: Cc1cc(C)c(C#N)c(SC(=S)NC(=O)c2ccccc2)n1
- TGI (NCI-H226 lung): > 100 µM
- TGI (BT-549 breast): > 100 µM
- TGI (SR leukemia): > 100 µM
- TGI (NCI-H460 lung): > 100 µM
- TGI (RXF 393 renal): > 100 µM
- TGI (SW-620 colon): > 100 µM
- TGI (786-0 renal): > 100 µM
- TGI (HCT-15 colon): > 100 µM
- TGI (SK-MEL-2 melanoma): > 100 µM
- TGI (COLO 205 colon): > 100 µM
- TGI (KM12 colon): > 100 µM
- TGI (HOP-92 NSCLC): > 100 µM
- TGI (EKVX NSCLC): > 100 µM
- TGI (MDA-MB-231 breast): > 100 µM
- TGI (M14 melanoma): > 100 µM
- TGI (SNB-75 CNS): > 100 µM
- TGI (MCF7 breast): > 100 µM
- TGI (SF-539 CNS): > 100 µM
- TGI (MDA-MB-435): > 100 µM
- TGI (RPMI-8226 leukemia): > 100 µM
- TGI (SK-MEL-5 melanoma): > 100 µM
- TGI (MOLT-4 leukemia): > 100 µM
- TGI (NCI-H23 lung): > 100 µM
- TGI (K-562 leukemia): > 100 µM
- TGI (T-47D breast): > 100 µM
- TGI (A498 renal): > 100 µM
- TGI (HT29 colon): > 100 µM
- TGI (IGROV1 ovarian): > 100 µM
- TGI (UO-31 renal): > 100 µM
- TGI (HCC-2998 colon): > 100 µM
- TGI (NCI-H522 lung): > 100 µM
- TGI (PC-3 prostate): > 100 µM
- TGI (ACHN renal): > 100 µM
- TGI (OVCAR-4 ovarian): > 100 µM
- TGI (UACC-62 melanoma): > 100 µM
- TGI (MDA-N): > 100 µM
- TGI (U251 CNS): > 100 µM
- TGI (SF-268 CNS): > 100 µM
- TGI (HOP-62 NSCLC): > 100 µM
- TGI (DU-145 prostate): > 100 µM
- TGI (SN12C renal): > 100 µM
- TGI (CCRF-CEM leukemia): > 100 µM
- TGI (HS 578T breast): > 100 µM
- TGI (HCT-116 colon): > 100 µM
- TGI (SK-MEL-28 melanoma): > 100 µM
- TGI (NCI/ADR-RES ovarian): > 100 µM
- TGI (UACC-257 melanoma): > 100 µM
- TGI (TK-10 renal): > 100 µM
- TGI (MALME-3M melanoma): > 100 µM
- TGI (CAKI-1 renal): > 100 µM
- TGI (A549 NSCLC): > 100 µM
- TGI (OVCAR-5 ovarian): > 100 µM
- TGI (SNB-19 CNS): > 100 µM

SMILES: CCOC(=O)c1c(SCCN2CCCCC2)n(-c2ccccc2)c(=S)n(-c2ccccc2)c1=O
- TGI (NCI-H226 lung): 16.9 µM
- TGI (BT-549 breast): 31.1 µM
- TGI (SR leukemia): > 20.4 µM
- TGI (NCI-H460 lung): > 100 µM
- TGI (RXF 393 renal): 25.7 µM
- TGI (SW-620 colon): 13.8 µM
- TGI (786-0 renal): 28.1 µM
- TGI (HCT-15 colon): 9.82 µM
- TGI (SK-MEL-2 melanoma): > 100 µM
- TGI (COLO 205 colon): 19.9 µM
- TGI (KM12 colon): 35 µM
- TGI (OVCAR-8 ovarian): 54.1 µM
- TGI (HOP-92 NSCLC): 30.8 µM
- TGI (SK-OV-3 ovarian): > 100 µM
- TGI (MDA-MB-231 breast): 38.4 µM
- TGI (M14 melanoma): 81.6 µM
- TGI (SNB-75 CNS): 37.1 µM
- TGI (HL-60(TB) leukemia): > 33.8 µM
- TGI (MCF7 breast): 18.3 µM
- TGI (MDA-MB-435): 31.5 µM
- TGI (RPMI-8226 leukemia): > 21.9 µM
- TGI (SK-MEL-5 melanoma): 29.7 µM
- TGI (MOLT-4 leukemia): 6.7 µM
- TGI (NCI-H23 lung): 34.8 µM
- TGI (OVCAR-3 ovarian): 24.7 µM
- TGI (K-562 leukemia): 11 µM
- TGI (T-47D breast): 8.27 µM
- TGI (HT29 colon): 32.1 µM
- TGI (UO-31 renal): 33.9 µM
- TGI (HCC-2998 colon): > 53.4 µM
- TGI (NCI-H522 lung): 35.4 µM
- TGI (PC-3 prostate): 27.7 µM
- TGI (ACHN renal): 34.7 µM
- TGI (OVCAR-4 ovarian): 33 µM
- TGI (UACC-62 melanoma): 68.9 µM
- TGI (MDA-N): 36.9 µM
- TGI (U251 CNS): > 68.2 µM
- TGI (SF-268 CNS): > 75.4 µM
- TGI (HOP-62 NSCLC): 40.8 µM
- TGI (DU-145 prostate): > 55.1 µM
- TGI (SN12C renal): 37.5 µM
- TGI (CCRF-CEM leukemia): 11.8 µM
- TGI (HS 578T breast): 80.1 µM
- TGI (HCT-116 colon): 4.89 µM
- TGI (LOX IMVI melanoma): 26.2 µM
- TGI (SK-MEL-28 melanoma): 24 µM
- TGI (NCI/ADR-RES ovarian): 41.7 µM
- TGI (UACC-257 melanoma): 17.1 µM
- TGI (TK-10 renal): 31.9 µM
- TGI (MALME-3M melanoma): 30.3 µM
- TGI (SF-295 CNS): > 100 µM
- TGI (A549 NSCLC): > 100 µM
- TGI (OVCAR-5 ovarian): > 100 µM
- TGI (SNB-19 CNS): > 100 µM

SMILES: O=c1cc(C(F)(F)F)c2cc3c(cc2o1)NCCC3
- TGI (NCI-H226 lung): > 100 µM
- TGI (BT-549 breast): > 100 µM
- TGI (SR leukemia): > 100 µM
- TGI (NCI-H460 lung): > 100 µM
- TGI (RXF 393 renal): 0.987 µM
- TGI (SW-620 colon): > 100 µM
- TGI (786-0 renal): > 100 µM
- TGI (HCT-15 colon): > 100 µM
- TGI (SK-MEL-2 melanoma): > 100 µM
- TGI (COLO 205 colon): > 100 µM
- TGI (KM12 colon): > 100 µM
- TGI (OVCAR-8 ovarian): > 100 µM
- TGI (HOP-92 NSCLC): > 100 µM
- TGI (EKVX NSCLC): > 100 µM
- TGI (MDA-MB-231 breast): > 100 µM
- TGI (M14 melanoma): > 100 µM
- TGI (HL-60(TB) leukemia): > 100 µM
- TGI (MCF7 breast): > 100 µM
- TGI (SF-539 CNS): > 100 µM
- TGI (MDA-MB-435): > 100 µM
- TGI (RPMI-8226 leukemia): > 100 µM
- TGI (SK-MEL-5 melanoma): > 100 µM
- TGI (MOLT-4 leukemia): > 100 µM
- TGI (NCI-H23 lung): > 100 µM
- TGI (OVCAR-3 ovarian): > 100 µM
- TGI (K-562 leukemia): > 100 µM
- TGI (T-47D breast): > 100 µM
- TGI (A498 renal): > 100 µM
- TGI (HT29 colon): > 100 µM
- TGI (IGROV1 ovarian): > 100 µM
- TGI (UO-31 renal): > 100 µM
- TGI (HCC-2998 colon): > 100 µM
- TGI (NCI-H522 lung): > 100 µM
- TGI (PC-3 prostate): > 100 µM
- TGI (ACHN renal): > 100 µM
- TGI (OVCAR-4 ovarian): > 100 µM
- TGI (MDA-N): > 100 µM
- TGI (U251 CNS): 63.4 µM
- TGI (SF-268 CNS): > 100 µM
- TGI (HOP-62 NSCLC): 42.8 µM
- TGI (DU-145 prostate): > 100 µM
- TGI (SN12C renal): > 100 µM
- TGI (CCRF-CEM leukemia): > 100 µM
- TGI (HS 578T breast): 61.9 µM
- TGI (HCT-116 colon): > 100 µM
- TGI (LOX IMVI melanoma): > 100 µM
- TGI (SK-MEL-28 melanoma): > 100 µM
- TGI (NCI/ADR-RES ovarian): > 100 µM
- TGI (UACC-257 melanoma): > 100 µM
- TGI (TK-10 renal): > 100 µM
- TGI (MALME-3M melanoma): > 100 µM
- TGI (CAKI-1 renal): > 100 µM
- TGI (SF-295 CNS): > 100 µM
- TGI (A549 NSCLC): > 100 µM
- TGI (OVCAR-5 ovarian): > 100 µM
- TGI (SNB-19 CNS): 91.7 µM
